How the values were obtained:
[1] = test system: Fmr1-K02 mice and wildtype (WT) littermates; assay: Inspection of animals for toxicity in Fragile X studies; assay type: in vivo; conditions: fmr1-knockout and wild-type mice
Experimental: Experiments were conducted in accordance with the United Kingdom Animals (Scientific Procedures) Act of 1986. Fmr1-K02 mice and wildtype (WT) littermates were generated on a C57BL/6J background and repeatedly backcrossed onto a C57BL/6J background for more than eight generations and send to Chile by the Jackson's laboratory. Mice were grouping housed (4-6 per cage) and all animals were provided with ad libitum food and water unless otherwise stated. Mice were maintained on a 12 h light/dark cycle (lights off 19:00 to 7:00) in a temperature-controlled environment (21±1° C.).
Animals were inspected for differences in coat appearance, whether any piloerection is present, eye condition (runny eyes or porphyria, ptosis) gait appearance, tremor, tail tone, reactivity to handling, etc.

[2] = test system: animals with scopolamine-induced memory impairment; assay: Morris Water Maze (MWM) test with scopolamine-induced memory impairment; assay type: in vivo, Wistar rats; conditions: 30 mg/kg; daily; oral
Excerpt: The first part of the study involved acute testing of cG-2-AllylP in the Morris Water Maze Memory (MWM) model. The MWM test is one of the most frequently used tests for assessing spatial memory in rats and is well recognized to accurately predict effects of disease and treatment on spatial memory generally. Therefore, the MWM test reflects effects of disease and treatment in human subjects. The standard procedure for MWM was followed. We used a circular swimming pool (80 cm depth×150 cm diameter) filled with opaque water, with the temperature maintained at 20° C. […] On days 1-4 of the experiment rats underwent memory acquisition trials with 6 trials (60 seconds each) in each day of testing (habituation phase). Latency to reach the platform was recorded and the daily reduction of average latency was used to measure the capability to learn where the hidden platform was. […] Experimental groups are detailed in the Table 4 below. On […], the probe MWM test was performed with the platform removed. There were 6 trials, each of maximum duration of 60s, at least 3 min rest between trials). […] Data was collected and analysed using Any-maze (v4.2) software. The data generated from behavioural tests was analysed using one-way ANOVA for determining the difference between the aged-groups. […]

[3] = test system: MeCP2-/y mice; assay: Heart rate measurements (tail clip sensor); assay type: in vivo; conditions: 8 weeks old
Experimental: Real time cardiac pulse rate is measured using a tail clip sensor (Mouse OX Oximeter-Oakmont, Pa.). Mice are not anesthetized but physically restrained in a fitted open plastic tube. Prior to the recording session the tube is placed overnight in the cages housing the experimental animals to allow habituation. Body temperature is maintained at ˜82-84° F. throughout the recording time. We record 3 trials of 15 minutes for each mouse, mice are 8 weeks old and treated with vehicle or cG-2-AllylP from PIS.
To examine heart rate abnormalities in MeCP2−/y mice and the effect of cG-2-AllylP treatment, we monitor real time cardiac pulse rate in non-anesthetized wild type and MeCP2−/y animals treated with vehicle or cG-2-AllylP.

[4] = test system: heterozygous Shank3-deficient mice; assay: Shank3-deficient mice: olfactory habituation/dishabituation; assay type: in vivo; conditions: all 4 groups
Experimental: 1 to 3 month old wild-type and heterozygous Shank3-deficient mice are divided into 4 treatment groups: placebo treated wild-type, placebo treated Shank3-deficient group and two Shank3-deficient cG-2-AllylP treated groups. The animals are given placebo (water) or cG-2-AllylP formulated in water administered orally, b.i.d for 14 days. cG-2-AllylP is administered at two doses: 15 or 60 mg/kg.
Olfactory habituation/dishabituation testing is conducted in male and female mice for each group. The methodology is as previously described (Silverman et al 2010, Yang et al 2009 and Silverman et al 2010). Non-social and social odors are presented on a series of cotton swabs inserted into the home cage sequentially, each for 2 min, in the following order; water, water, water (distilled water); almond, almond, almond (1:100 dilution almond extract); banana, banana, banana (1:100 dilution artificial banana flavouring); social 1, social 1, social 1 (swiped from the bottom of a cage housing unfamiliar sex-matched B6 mice); and social 2, social 2, social 2 (swiped from the bottom of a second cage housing a different group of unfamiliar sex-matched 129/SvImJ mice). One-way repeated measures ANOVA is performed within each treatment group for each set of habituation events and each dishabituation event, followed by a Tukey post hoc test.

[5] = test system: synaptophysin (SYN); assay: PBBI in rats: synaptophysin (SYN) immunohistochemistry in hippocampus; assay type: in vivo, Sprague-Dawley rats; conditions: 30 mg/kg oral once daily
Experimental: The methods for producing PBBI in this Example is the same as described above for Example 26. Adult Sprague-Dawley rats were randomly assigned into three groups: sham (craniotomy only), PBBI+vehicle (i.e. H2O), and PBBI+cG-2-AllylP. cG-2-AllylP (or vehicle) was administered via oral gavage at 30 mg/kg at 30 min post-injury and continued once daily thereafter for 7, 14 or 28 days. At each treatment endpoint, rats were perfused and brains were processed for histological analysis (n=5-6/group/time-point). For detection of axonal sprouting, immunohistochemical detection of growth-associated protein-43 (GAP-43) was employed. Synaptogenesis was determined by immunohistochemistry for synaptophysin (SYN). For histological quantification, the integrated density in the hippocampal region was determined using NIH ImageJ software.

[6] = test system: fmr1-knockout hippocampal neurons; assay: Dendritic spine density in hippocampal cell cultures; assay type: cell-based, mice
Experimental: Hippocampal cell cultures were prepared from wild type and fmr1-knockout fetal mice (14-16 days of gestation). Briefly, mice were kill by cervical dislocation under chloroform anesthesia, and dissociated hippocampal cells were plated in 13 mm multiwell vessels (Falcon Primaria). A plating medium of MEM-Eagle's salts (supplied glutamine free) supplemented with 10% fetal bovine serum was used. Cultures were kept at 37° C. in a humidified 3% CO2 atmosphere. After 3d in vitro, green fluorescent protein (GFP) was added to monitor dendritic spine morphogenesis during time-course of culture (Ethell and Yamaguchi, 1999; Ethell et al., 2001, Henkemeyer et al., 2003). The dendritic spines usually formed between 7 and 14 days in vitro (DVI). By 14 DIV most dendritic protrusions were spines. The mean (±SD) spine density was measured as number of spines per micrometer and experiments were run in triplicate.

[7] = test system: neurons in the CA3 region of the hippocampus; assay: Neuron soma size in the hippocampus; assay type: in vivo, mice
Experimental: We also measure the effect of cG-2-AllylP treatment on neuron soma size in the hippocampus. Mice are treated with cG-2-AllylP as described above for locomotor activity.

SMILES: C=CC[C@]12CCCN1C(=O)CNC2=O [cG-2-AllylP, (8aS)-Allyl-hexahydropyrrolo[1,2-a]pyrazine-1,4-dione]
- toxicity (coat, piloerection, eyes, gait, tremor, tail tone, reactivity) [1]: No instances of toxicity have been observed
- cognitive impairment induced by scopolamine (MWM) [2]: significantly reversed the cognitive impairment induced by scopolamine
- occurrence of irregular heart rate with a lower average rate [3]: significantly reduced
- olfactory habituation [4]: normal levels of habituation
- injury-induced reduction in SYN expression ([5]; 7d or 14d post-PBBI): no effect on injury-induced reductions
- PBBI-induced reduction in SYN expression ([5]; 28 days post-injury): attenuated PBBI-induced reductions
- spine density (mean±SD) ([6]; 0.5 nM, n=3): 0.36±0.02 number of spines per micromete
- spine density (mean±SD) ([6]; 5 nM): 0.25±0.03 number of spines per micromete
- spine density (mean±SD) ([6]; 50 nM): 0.27±0.10 number of spines per micromete
- average soma size ([7]; KO animals): increases average soma size in KO animals
- soma size ([7]; wild type animals): little or no effect on soma size in wild type animals

— patent US11197856B2, “Bicyclic compounds and methods for their use in treating autism” (priority 2013, dated 2021)
